Measured values taken from paper PMC12116161, “An Elastase Inhibitor ShSPI from Centipede Attenuates Bleomycin-Induced Pulmonary Fibrosis” (Toxins, 2025).

Tested on: MCP-1, IL-6, IL-1β, IFN-γ, IL-10, TGF-β mRNA in lung tissue
Assay: RT-qPCR of inflammatory factor mRNA in lung tissue of IPF mice
Format: in vivo, ICR mice
Conditions: pirfenidone 200 mg/kg oral gavage once daily for 7 days, BLM-induced IPF mice
Experimental: Animal Model Preparation: The peptide powder was dissolved in pre-cooled saline and filtered to remove bacteria, then a spray needle was attached to a micro-syringe to aspirate the peptide solution. A total of 56 ICR mice were anesthetized by intramuscular injection of avertin. After anesthesia, the mice were fixed supine, the tongue was gently pulled, the vocal folds were exposed with a laryngoscope, the trachea was gently inserted, and the nebulized solution was rapidly pushed and injected. Each mouse was administered 100 μL of a 0.4 mg/mL bleomycin solution via tracheal spray, with the treatment performed once. Seven days after modeling, the mice were randomly grouped for ShSPI treatment based on weight loss scores. An additional 8 mice received the vehicle (normal saline) and were designated as the sham group.
A total of 48 suitable mice were randomly divided into five groups: the model control group (MC), the positive control group (PC), and the ShSPI low-dose groups (1 mg/kg), medium-dose groups (2 mg/kg), and high-dose groups (4 mg/kg).
Drug Administration: Starting on day 7 post-modeling, ShSPI peptide treatment groups were anesthetized with intramuscular avertin and received tracheal spray administration of the peptide. The low-dose group was treated with 1 mg/kg ShSPI peptide, the medium-dose group with 2 mg/kg, and the high-dose group with 4 mg/kg. The positive control group, without anesthesia, received 200 mg/kg pirfenidone (IPFD) via oral gavage. All groups were treated once daily for seven consecutive days.
The left lobe of the lung was collected from each mouse for total RNA extraction using RNAiso Plus, following the manufacturer’s instructions. The extracted RNA was quantified using a UV spectrophotometer. One microgram of total RNA was reverse transcribed into cDNA using a first-strand cDNA synthesis kit, following the provided protocol. Quantitative PCR (qPCR) was performed on a QuantStudio system using 2× SYBR Green qPCR Master Mix, and β-actin served as the internal control. The PCR reaction utilized a two-step protocol: 95 °C for 15 s, followed by 60 °C for 60 s, repeated for 40 cycles. Gene expression levels were calculated using the 2^−ΔΔCt method.

## Cc1ccc(=O)n(-c2ccccc2)c1 [pirfenidone, reference compound]
  mRNA content of pro-inflammatory cytokines (MCP-1, IL-6, IL-1β, IFN-γ) in lung tissue: reduction
